Data reported in US9505740B2, “Cyclic amine derivative and pharmaceutical use thereof” (Toray Industries, Inc., priority 2013, dated 2016).
Structures can show the parent of a compound that is named as a salt.

Experiments:
[1] = system: mouse partial sciatic nerve ligation model; assay: Mouse partial sciatic nerve ligation model (Seltzer model), von Frey test; type: in vivo; conditions: Day 7, vs physiological saline group
[2] = system: fibromyalgia syndrome model rats; assay: Fibromyalgia syndrome model in rats (acidic saline), allodynia by von Frey filament; type: in vivo, rat; conditions: intravenous administration; Example 13 3 and 10 mg/kg, pregabalin 10 mg/kg; 30 minutes after administration; vs acidic saline-vehicle group
Text: Using a fibromyalgia syndrome model in rats by which fibromyalgia syndrome can be evaluated, the analgesic action of a cyclic amine derivative (I) or a prodrug thereof or a pharmacologically acceptable salt thereof was investigated.
As the cyclic amine derivative (I) or a pharmacologically acceptable salt thereof, the compound of Example 13 was used for evaluation. As the prodrug of a cyclic amine derivative (I) or a pharmacologically acceptable salt thereof, the compound of Example 38 was used for evaluation. The compound of Example 38 is a hydrochloride of a prodrug obtained by esterifying the carboxyl group of the compound of Example 39 with an ethyl group.
To prepare a fibromyalgia syndrome model rat (Sluka et al., Journal of Pharmacology and Experimental Therapeutics, vol. 302, p. 1146-50, 2002; Nagakura et al., Pain, vol. 146, p. 26-33, 2009; Sluka et al., Pain, vol. 146, p. 3-4, 2009), which is generally employed widely in basic research for fibromyalgia syndrome, acidic saline (100 μL) adjusted to pH4.0 was intramuscularly injected to the gastrocnemius muscle of the right hind paw of Crl: CD(SD) rat (6 to 7 weeks old, male; from CHARLES RIVER LABORATORIES JAPAN, INC.) under continuous inhalation anesthesia with isoflurane, twice (once in each day of Day 1 and Day 6, wherein Day 1 was the date on which the acidic saline was initially administrated). The rats thus prepared were raised in a breeding room controlled at an indoor temperature of 21 to 25° C. and an indoor humidity of 40 to 70% under the conditions of voluntary intake of food and water. In the same manner, rats to which physiological saline in place of acidic saline was intramuscularly injected were raised. The rats thus raised and not afflicted with fibromyalgia syndrome (“physiological saline-vehicle” group in FIGS. 23 and 24) were also used in the experiment.
Day 7 after the initial administration of acidic saline, allodynia in each rat was measured. […] Note that, measurement of allodynia was performed by use of a von Frey filament (from North Coast Medical) in accordance with the method described in a known literature (Chaplan et al., Journal of Neuroscience Methods, vol. 53, p. 55-63, 1994). […]
The compound of Example 13 (3 and 10 mg/kg) was dissolved in physiological saline and then administered (intravenous administration) to fibromyalgia syndrome model rats through the tail vein (“acidic saline—the compound of Example 13” in FIG. 23). […] In thirty minutes after the intravenous administration, allodynia in individual rats was measured to evaluate an analgesic action. […]

[3] = intraventricular administration, 10 μg/site, 15, 30 and 60 minutes after administration, p<0.05
[4] = intravenous administration (tail vein), Examples 2, 4: 0.1 to 10 mg/kg, 13: 0.01 to 1 mg/kg, 18, 22: 0.1 and 1 mg/kg, 25, 27, 29, 31, 33, 66, 68, 70: 0.1 mg/kg, pregabalin 1 or 3 mg/kg

CC(=O)NCCN(C)C1CCN(C(=O)CCc2nccn2C)CC1 [Example 6, N-(2-(methyl(1-(3-(1-methyl-1H-imidazol-2-yl)propanoyl)piperidin-4-yl)amino)ethyl)acetamide hydrochloride]
analgesic action, total score in the von Frey test [1, 3]: statistically significant analgesic action

Cl.O=C(O)Cn1ccnc1CCC(=O)N1CCC(N2CCCCC2)CC1 [Example 25, 2-(2-(3-(4-(piperidin-1-yl)piperidin-1-yl)-3-oxopropyl)-1H-imidazol-1-yl)acetic acid hydrochloride]
analgesic action, total score in the von Frey test [1, 4]: statistically significant analgesic action

CNC1CCN(C(=O)CCc2nccn2C)CC1 [Example 2, 3-(1-methyl-1H-imidazol-2-yl)-1-(4-(methylamino)piperidin-1-yl)propan-1-one hydrochloride]
analgesic action, total score in the von Frey test [1, 4]: statistically significant analgesic action
analgesic action, total score in the von Frey test [1, 3]: statistically significant analgesic action

CN(C)C1CCN(C(=O)CCc2nccn2CCC(=O)O)CC1 [Example 66, 3-(2-(3-(4-(dimethylamino)piperidin-1-yl)-3-oxopropyl)-1H-imidazol-1-yl)propanoic acid hydrochloride]
analgesic action, total score in the von Frey test [1, 4]: statistically significant analgesic action

CN(C)[C@H]1CCCN(C(=O)CCc2nccn2CCC(=O)O)C1.Cl [Example 68, 3-(2-(3-((S)-3-dimethylaminopiperidin-1-yl)-3-oxopropyl)-1H-imidazol-1-yl)propanoic acid hydrochloride]
analgesic action, total score in the von Frey test [1, 4]: statistically significant analgesic action

CN(C)C1CCN(C(=O)CCc2nccn2CCO)CC1 [Example 12, 1-(4-(dimethylamino)piperidin-1-yl)-3-(1-(2-hydroxyethyl)-1H-imidazol-2-yl)propan-1-one hydrochloride]
analgesic action, total score in the von Frey test [1, 3]: statistically significant analgesic action

Cl.O=C(O)Cn1ccnc1CCC(=O)N1CCC(N2CCOCC2)CC1 [Example 27, 2-(2-(3-(4-(morpholin-4-yl)piperidin-1-yl)-3-oxopropyl)-1H-imidazol-1-yl)acetic acid hydrochloride]
analgesic action, total score in the von Frey test [1, 4]: statistically significant analgesic action

CN(C)[C@H]1CCN(C(=O)CCc2nccn2CC(=O)O)C1.Cl [Example 33, (S)-2-(2-(3-(3-(dimethylamino)pyrrolidin-1-yl)-3-oxopropyl)-1H-imidazol-1-yl)acetic acid hydrochloride]
analgesic action, total score in the von Frey test [1, 4]: statistically significant analgesic action

CCN(CC)C1CCN(C(=O)CCc2nccn2CC(=O)O)CC1.Cl [Example 22, 2-(2-(3-(4-(diethylamino)piperidin-1-yl)-3-oxopropyl)-1H-imidazol-1-yl)acetic acid hydrochloride]
analgesic action, total score in the von Frey test [1, 4]: statistically significant analgesic action

CC(=O)NC1CCN(C(=O)CCc2nccn2C)CC1.Cl [Example 10, N-(1-(3-(1-methyl-1H-imidazol-2-yl)propanoyl)piperidin-4-yl)acetamide hydrochloride]
analgesic action, total score in the von Frey test [1, 3]: statistically significant analgesic action

CCN(C)C1CCN(C(=O)CCc2nccn2CC(=O)O)CC1.Cl [Example 18, 2-(2-(3-(4-(ethylmethylamino)piperidin-1-yl)-3-oxopropyl)-1H-imidazol-1-yl)acetic acid hydrochloride]
analgesic action, total score in the von Frey test [1, 4]: statistically significant analgesic action

CC(=O)N(C)C1CCN(C(=O)CCc2nccn2C)CC1.Cl [Example 4, N-methyl-N-(1-(3-(1-methyl-1H-imidazol-2-yl)propanoyl)piperidin-4-yl)acetamide hydrochloride]
analgesic action, total score in the von Frey test [1, 4]: statistically significant analgesic action
analgesic action, total score in the von Frey test [1, 3]: statistically significant analgesic action

CN1CCN(C2CCN(C(=O)CCc3nccn3CC(=O)O)CC2)CC1.Cl [Example 29, 2-(2-(3-(4-(1-methylpiperazin-4-yl)piperidin-1-yl)-3-oxopropyl)-1H-imidazol-1-yl)acetic acid hydrochloride]
analgesic action, total score in the von Frey test [1, 4]: statistically significant analgesic action

CN(C)[C@H]1CCN(C(=O)CCc2nccn2CCC(=O)O)C1.Cl [Example 70, (S)-3-(2-(3-(3-(dimethylamino)pyrrolidin-1-yl)-3-oxopropyl)-1H-imidazol-1-yl)propanoic acid hydrochloride]
analgesic action, total score in the von Frey test [1, 4]: statistically significant analgesic action

CN(C)C1CCN(C(=O)CCc2nccn2CC(=O)O)CC1 [Example 13, 2-(2-(3-(4-(dimethylamino)piperidin-1-yl)-3-oxopropyl)-1H-imidazol-1-yl)acetic acid hydrochloride]
allodynia, 50% response threshold (mean value of the right hind paw and the left hind paw) [2]: statistically significantly improved
analgesic action, total score in the von Frey test [1, 4]: statistically significant analgesic action
analgesic action, total score in the von Frey test [1, 3]: statistically significant analgesic action

CN(C)C1CCN(C(=O)CCc2nccn2CCN)CC1 [Example 15, 3-(1-(2-aminoethyl)-1H-imidazol-2-yl)-1-(4-(dimethylamino)piperidin-1-yl)propan-1-one hydrochloride]
analgesic action, total score in the von Frey test [1, 3]: statistically significant analgesic action

CN(C)[C@@H]1CCCN(C(=O)CCc2nccn2CC(=O)O)C1.Cl [Example 31, 2-(2-(3-((R)-3-dimethylaminopiperidin-1-yl)-3-oxopropyl)-1H-imidazol-1-yl)acetic acid hydrochloride]
analgesic action, total score in the von Frey test [1, 4]: statistically significant analgesic action
